Like-named read-outs stand apart in the source and are kept apart here.
Assays:
Assay type in all cases: cell-based
[1] = system: LN229 gliobastoma cells MGMT+/MMR+; test: Anti-cancer assay, isogenic LN229 cells, nuclei count (Example 43); conditions: Homo sapiens, LN-229; LN229 MGMT+/MMR+; 120 hours; read-out: MGMT+ MMR+ Activity
Excerpt: (§1) Cytotoxicity of the compounds may be measured in short-term cell viability assays against four isogenic LN229 glioblastoma cell lines engineered to be proficient or deficient in MGMT and/or MMR activity by using short hairpin RNAs (shRNAs) targeting MSH2. This approach allows for determination of the relationship between MGMT status, MMR status, and compound activity. LN229 cells are maintained in Dulbecco's Modified Eagle Medium (DMEM) supplemented with 10% fetal bovine serum, 1% Penicillin/Streptomycin, and 0.1% Fungin. DAY 0: Cells are plated into sterile 96-well plates (Corning Costar 96-well) at a concentration of 500 cells/well using a Multichannel pipettor. Then, assay plates are incubated overnight in a 37° C. 5% CO2 incubator. DAY 1: Compounds are prepared as 50 mM stocks in dimethyl sulfoxide (DMSO) and stored protected from light at room temperature (RT) until use. Prior to compound addition, a two-fold serial dilution of compound stock solutions is performed in DMSO from 30 mM to 0.117 mM in a 96-well Master plate. Vehicle control wells contain DMSO. 97 μL of media is added to each well of a new 96-well plate (Daughter plate) and 3 μL of drug solution from Master plate is added to corresponding wells in the Daughter plate resulting in a 3× plate. Three replicate dilution curves of each compound are run on each assay plate. The final concentration of compounds ranges from 300 μM to 1.171 μM (9-point, 2-fold dilution dose response curve), and the final DMSO concentration is 1%.
(§2) Assay plates are incubated for 120 hours at 37° C. in a humidified 5% CO2 incubator. DAY 5: Following incubation, cells are fixed with 4% paraformaldehyde and stained with Hoechst dye for nuclei visualization. Fixation, staining and washing is performed by using a Thermo Scientific Multidrop Combi. Images are acquired on a BioTek Cytation 5 Cell Imaging Multimode Reader and quantified using Cell Profiler image analysis software. Raw cell count data for test compounds are normalized to percent viability relative to the DMSO vehicle control.
(§3) Isogenic LN229 gliobastoma cells were maintained in Dulbecco's Modified Eagle Medium (DMEM) supplemented with 10% fetal bovine serum, 1% Penicillin/Streptomycin, and 0.1% Fungin. DAY 0: Cells were plated into sterile 96-well plates (Corning Costar 96-well) at a concentration of 500 cells/well using a Multichannel pipettor. Then, assay plates were incubated overnight in a 37° C. 5% CO2 incubator. DAY 1: Compounds were prepared as 50 mM stocks in dimethyl sulfoxide (DMSO) and stored protected from light at room temperature (RT) until use. Prior to compound addition, a two-fold serial dilution of compound stock solutions was performed in DMSO from 30 mM to 0.117 mM in a 96-well Master plate. Vehicle control wells contained DMSO. 97 μL of media was added to each well of a new 96-well plate (Daughter plate) and 3 μL of drug solution from Master plate was added to corresponding wells in the Daughter plate resulting in a 3× plate. Three replicate dilution curves of each compound were run on each assay plate. The final concentration of compounds ranged from 300 μM to 1.171 μM (9-point, 2-fold dilution dose response curve), and the final DMSO concentration was 1%.
as §2, with “plates were” for “plates are”, “cells were” for “cells are”, “washing was” for “washing is”, “Images were” for “Images are”, “compounds were” for “compounds are”

[2] = system: LN229 gliobastoma cells MGMT+/MMR−; test: as above; conditions: Homo sapiens, LN-229; LN229 MGMT+/MMR−; 120 hours; read-out: MGMT+ MMR− Activity
Excerpt: as §1, §2, §3
as §2, with “plates were” for “plates are”, “cells were” for “cells are”, “washing was” for “washing is”, “Images were” for “Images are”, “compounds were” for “compounds are”

[3] = system: LN229 gliobastoma cells MGMT−/MMR+; test: Anti-cancer assay, isogenic LN229 cells, nuclei count (Examples 43, 46); conditions: Homo sapiens, LN-229; LN229 MGMT−/MMR+; 120 hours; read-out: MGMT− MMR+ Activity
Excerpt: as §1, §2, §3
as §2, with “plates were” for “plates are”, “cells were” for “cells are”, “washing was” for “washing is”, “Images were” for “Images are”, “compounds were” for “compounds are”, “control. […]” for “control.”

[4] = system: LN229 gliobastoma cells MGMT−/MMR−; test: as above; conditions: Homo sapiens, LN-229; LN229 MGMT−/MMR−; 120 hours; read-out: MGMT− MMR− Activity
Excerpt: as §1, §2, §3
as §2, with “plates were” for “plates are”, “cells were” for “cells are”, “washing was” for “washing is”, “Images were” for “Images are”, “compounds were” for “compounds are”, “control. […]” for “control.”

[5] = system: LN229 gliobastoma cells MGMT−/MMR+; test: as above; conditions: Homo sapiens, LN-229; MGMT negative/MMR positive; Example 46, maximum concentration 200 μM; read-out: IC50 for causing the death of LN229 cells

NC(=O)c1ncn2c(=O)n(CCOC(F)(F)F)nnc12 [Compound I-1, 4-Oxo-3-(2-(trifluoromethoxy)ethyl)-3,4-dihydroimidazo[5,1-d][1,2,3,5]tetrazine-8-carboxamide]
IC50 [1]: > 100 µM | IC50 [2]: > 100 µM | IC50 [3]: < 20 µM | IC50 [4]: < 20 µM | IC50 [5]: < 20 µM

From US20250066371A1, “FLUOROALKOXYALKYLENE-DIHYDROIMIDAZO[5,1-D]TETRAZINONE COMPOUNDS AND RELATED COMPOUNDS AND THEIR USE IN TREATING MEDICAL CONDITIONS” (priority 2023, published 2025)
